The target of one assay is T1, human SCD1 (Homo sapiens, UniProt O00767).
T1 construct: host or cells: S. cerevisiae ole1Δ strain (W303 pdr1Δ pdr3Δ background), plasmid pRS316 with TDH3 promoter and CYC1 terminator
T1 sequence (O00767 1-359): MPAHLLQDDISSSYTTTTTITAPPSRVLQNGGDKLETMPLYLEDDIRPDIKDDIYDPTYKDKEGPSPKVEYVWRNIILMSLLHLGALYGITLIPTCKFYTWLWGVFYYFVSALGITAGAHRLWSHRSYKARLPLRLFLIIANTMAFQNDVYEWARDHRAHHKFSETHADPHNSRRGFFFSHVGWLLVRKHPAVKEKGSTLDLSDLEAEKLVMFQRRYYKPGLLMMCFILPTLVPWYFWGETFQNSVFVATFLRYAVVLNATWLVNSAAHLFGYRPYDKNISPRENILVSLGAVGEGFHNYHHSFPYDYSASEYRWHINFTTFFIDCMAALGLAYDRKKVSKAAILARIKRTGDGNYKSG
Description: Growth of humanized yeast surviving solely on human SCD1. Conditions: growth inhibition. It counts as cell-based. An excerpt:
The coding sequence of yeast OLE1 was also cloned into this plasmid). These clones were then transformed into the ole1d strain and plated on CSM-Ura media (CSM lacking uracil) with 2% glucose (w/v) and independent colonies were isolated and amplified.
For experiments using a plasmid-borne copy of Ole1, SCD1, or SCD5 (FIGS. 3B, 6, and 7), media lacking uracil (SX-Ura, where X is glucose, raffinose, or galactose), was used for all steps of the compound profiling protocol to ensure its maintenance throughout the assay.
After yeast delivery, assay plates were incubated under humidified conditions at 30° C. for 24 to 40 h. ApoE4 rescue experiments were stopped at 24 h, aSyn experiments at 40 h, Ole1 at 24 h, and SCD1/SCD5 at 40 h. The growth of yeast was monitored by reading the OD600 of each well using a microplate reader (Perkin Elmer EnVision™).

Assay [1] has as its system human iPSC-derived neurons harboring the alpha-synuclein A53T mutation. Description: Neuron survival assay, human iPSC-derived neurons harboring the alpha-synuclein A53T mutation. The assay is classed as cell-based. The following applies: 100 nM and 30 nM; relative to DMSO controls in A53T neurons; 8 to 10 d. The procedure: FIG. 15 is a graph showing that SCD inhibition with CAY10566 reduced the cumulative risk of death in human iPSC-derived neurons harboring the alpha-synuclein A53T mutation. Human iPSC cells harboring the alpha-synuclein A53T mutation or an isogenic control line in which the mutation was corrected to wild-type were trans-differentiated into neurons. Single cells were evaluated for survival (based on overall morphology) over the course of the 192 hour study. Cell survival data was analyzed by a non-parametric Kaplan-Meier procedure to estimate survival probability, which is shown as the cumulative risk of cell death. (HR, hazard ratio; P, p value (*<0.05, ns=not significant (>0.05)); CI, confidence interval; N, number of neurons tracked). […]
Transfected neuronal cultures were imaged at 12-24 h intervals for the indicated number of days by robotic microscopy. Fluorescence images were acquired with a Nikon Eclipse Ti microscope equipped with a motorized stage, 20× extra-long working distance (ELWD) objective, and an Andor Zyla cMOS camera. […] Images were processed and analyzed with custom-made scripts in R and ImageJ software. The lifetimes of individual neurons were determined by tracking fluorescently-labeled neurons in ImageJ. Neuronal death was determined to occur upon incidence of RFP signal loss or rupture of cell body. […]

For `Cc1nnc(-c2ccc(N3CCC(Oc4cc(F)ccc4Cl)CC3)nn2)o1` [CAY10566], on human SCD1, the “half-maximal inhibitory concentration (IC50), SCD1 humanized strain” value was “low nanomolar”. Further, in assay [1], the “risk of neuron death” value is “significantly reduced”.

For the origin of these results see patent publication US10973810B2, “Methods for the treatment of neurological disorders” (Yumanity Therapeutics, Inc., priority 2017, dated 2021).
